Source: ChEMBL document CHEMBL1201862, “PubChem BioAssay data set” (2004)
One block for each molecule: values may come before it. Active and inactive are the calls of the source.

How the values were obtained:
[1] = inhibitors of Bluetongue virus cytopathic effect, confirmation, arbovirus, BSR cells (AID 1250); assay type: functional;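 also: protection from viral cytopathic effect measured as cell viability by ATP luminescence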
[2] = Luminescence-based counterscreen assay for KLF5 inhibitors: dose response cell-based high throughput screening assay to identify cytotoxic compounds using the IEC-6 intestinal epithelial cell line. [Related pubchem assays: 1700 (Primary screen.), 1834 (Confirmation screen.), 1858 (Summary AID.), 1905 (Counterscreen.)]; assay type: functional
[3] = HepG2 cell cytotoxicity, dose response, cytotoxicity control, plate reader, cherry-pick, antagonist series (AID 743416); assay type: functional, cell-based
[4] = LGR2 antagonists, dose response, cell-based, HEK293, CRE-luciferase reporter, cherry pick, set 2 (AID 743343); assay type: functional;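 also: transfected cells were stimulated with diluted bursicon conditioned medium after compound addition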
[5] = A549 cell cytotoxicity, dose response, cytotoxicity control, plate reader, cherry-pick, antagonist series (AID 743412); assay type: functional, cell-based
[6] = MC4R antagonists, dose response, counter-screen for LGR2 antagonist project, cell-based, plate reader, cherry pick (AID 743444); assay type: functional;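 also: transfected HEK 293 cells stimulated with alpha-MSH peptide; potency of inhibitors of the alpha-MSH evoked signal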
[7] = HEK293 cell cytotoxicity, dose response, cytotoxicity control, plate reader, cherry-picked samples (AID 743446); assay type: functional, cell-based
[8] = target: Neuropeptide Y receptor type 2 (Homo sapiens, UniProt P49146); assay type: functional, cell-based;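 also: HEK293 cells expressing the receptor and a CNG channel; stimulus was NPY near EC95 followed by isoproterenol to raise cAMP; antagonist potency measured as restoring cAMP signal that NPY suppresses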
Protein skinhead-1 = target: T1, Protein skinhead-1 (Caenorhabditis elegans, UniProt P34707); assay type: functional
T1 sequence (P34707 whole entry): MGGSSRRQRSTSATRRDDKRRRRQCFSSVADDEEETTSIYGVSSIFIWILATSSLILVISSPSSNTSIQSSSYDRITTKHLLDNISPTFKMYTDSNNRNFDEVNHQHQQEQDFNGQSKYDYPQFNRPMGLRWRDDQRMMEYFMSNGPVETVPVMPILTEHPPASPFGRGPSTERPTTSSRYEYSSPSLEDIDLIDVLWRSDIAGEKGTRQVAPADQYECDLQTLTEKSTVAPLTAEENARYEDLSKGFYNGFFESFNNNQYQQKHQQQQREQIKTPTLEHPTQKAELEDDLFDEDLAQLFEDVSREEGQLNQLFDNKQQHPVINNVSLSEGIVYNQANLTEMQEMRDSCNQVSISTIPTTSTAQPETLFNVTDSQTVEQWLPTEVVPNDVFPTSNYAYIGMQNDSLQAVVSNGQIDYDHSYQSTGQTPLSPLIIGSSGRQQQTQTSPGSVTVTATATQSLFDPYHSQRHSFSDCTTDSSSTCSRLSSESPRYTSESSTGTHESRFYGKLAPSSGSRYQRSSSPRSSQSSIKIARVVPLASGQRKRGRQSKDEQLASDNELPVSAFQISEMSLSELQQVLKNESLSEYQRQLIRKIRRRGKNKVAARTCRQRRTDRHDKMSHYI

[9] = target: Neuropeptide Y receptor type 1 (Homo sapiens, UniProt P25929); assay type: functional;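 also: HEK293 cells with a CNG channel challenged with NPY then isoproterenol; potency as antagonist that reverses NPY suppression of cAMP signal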
[10] = target: Mothers against decapentaplegic homolog 3 (Homo sapiens, UniProt P84022); assay: SMAD3 transcription factor inhibitors, dose response (AID 715); assay type: functional
Mothers against decapentaplegic homolog 3, sequence (P84022 whole entry): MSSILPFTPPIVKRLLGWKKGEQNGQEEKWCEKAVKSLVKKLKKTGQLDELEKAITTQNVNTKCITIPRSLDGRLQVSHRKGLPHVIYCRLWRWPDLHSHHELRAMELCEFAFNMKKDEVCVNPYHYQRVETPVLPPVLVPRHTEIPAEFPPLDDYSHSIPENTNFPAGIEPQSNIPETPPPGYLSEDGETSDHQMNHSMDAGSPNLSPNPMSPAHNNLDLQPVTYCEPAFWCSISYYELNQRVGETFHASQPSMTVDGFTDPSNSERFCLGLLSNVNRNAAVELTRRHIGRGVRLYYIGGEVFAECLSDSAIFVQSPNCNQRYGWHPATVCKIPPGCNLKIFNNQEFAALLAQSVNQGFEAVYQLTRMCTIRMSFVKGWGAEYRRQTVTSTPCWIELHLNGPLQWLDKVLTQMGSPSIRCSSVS

Neuropeptide Y receptor type 1, sequence (P25929 whole entry): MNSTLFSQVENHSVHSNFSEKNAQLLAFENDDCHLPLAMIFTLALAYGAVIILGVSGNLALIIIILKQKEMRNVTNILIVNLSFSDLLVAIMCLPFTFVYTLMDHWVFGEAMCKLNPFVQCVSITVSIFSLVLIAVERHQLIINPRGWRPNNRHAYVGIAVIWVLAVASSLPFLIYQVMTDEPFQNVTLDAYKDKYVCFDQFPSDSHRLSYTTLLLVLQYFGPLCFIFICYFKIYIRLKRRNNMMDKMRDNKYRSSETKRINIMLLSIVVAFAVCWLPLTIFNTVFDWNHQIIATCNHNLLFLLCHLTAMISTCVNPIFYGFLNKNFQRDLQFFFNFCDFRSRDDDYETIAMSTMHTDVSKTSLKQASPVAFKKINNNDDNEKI
Neuropeptide Y receptor type 2, sequence (P49146 whole entry): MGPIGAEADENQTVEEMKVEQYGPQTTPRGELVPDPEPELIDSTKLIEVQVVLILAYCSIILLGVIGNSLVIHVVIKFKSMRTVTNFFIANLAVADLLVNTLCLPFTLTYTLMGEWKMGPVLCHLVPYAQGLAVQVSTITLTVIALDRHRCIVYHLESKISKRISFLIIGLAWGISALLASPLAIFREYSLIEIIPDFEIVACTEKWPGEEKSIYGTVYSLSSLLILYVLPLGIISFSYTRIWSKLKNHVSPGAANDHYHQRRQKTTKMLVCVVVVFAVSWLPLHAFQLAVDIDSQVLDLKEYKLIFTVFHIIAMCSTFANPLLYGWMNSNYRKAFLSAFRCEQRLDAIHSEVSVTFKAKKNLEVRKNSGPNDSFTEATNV

- IC50 [1]: 24 µM (active)
Structure (SMILES): CC1CCc2c(sc(NC(=O)c3ccccc3C(=O)O)c2C#N)C1 (stereo unspecified)

Structure (SMILES): CCc1ccc(C(=O)Nc2nc3ccccc3[nH]2)cc1
- IC50 [2]: 22.1 µM (not active)
- AC50 [3]: 29.3 µM (active)
- AC50 [4]: 1.27 µM (active)
- AC50 [5]: 31.8 µM (active)
- AC50 [6]: 1.45 µM (active)
- AC50 [7]: 28.4 µM (active)

- IC50 [8]: 15.1 µM (not active)
- IC50 (Protein skinhead-1): > 100 µM (inactive)
- IC50 [9]: 13.4 µM (not active)
Structure (SMILES): Clc1ccc(-c2nnn(Cc3nc4ccccc4s3)n2)cc1

- IC50 [10]: 8.78 µM (active)
Structure (SMILES): CCCc1cc(=O)[nH]c(N=C(NC(=O)C(C)N2C(=O)c3ccccc3C2=O)Nc2ccccc2)n1 (stereo unspecified)
